Source: patent US6395261B1, “Walnut seed meal extract” (Gattefosse S.A., priority 1998, dated 2002)

How the values were obtained:
[1] = tested on: elastase; test: Elastase activity of cellular extracts of fibroblasts (SANA substrate); assay type: biochemical, human; conditions: positive control at 2 mM
Experimental: This activity is evaluated on cellular extracts of fibroblasts of human dermis, isolated from the foreskin and cultured according to routine techniques at 37° C., in a humid air-CO2 (95/5%) atmosphere.
The fibroblasts are cultured in DMEM medium supplemented with fetal calf serum (10% FCS) and passaged regularly until a sufficient biomass is obtained.
To carry out the test, the cells are detached from their support by trypsinization. After centrifugation and suitable treatment, the cellular extracts are recovered.
The elastase activity of the cellular extracts was evaluated using Suc-(L-Ala)3-p-nitroanilide (SANA) as substrate. Aliquots of the cellular extract are preincubated at 37° C. in TEA (triethanolamine) buffer at pH=7.8, alone or in buffer containing various concentrations of extracts.
After incubation, a solution of SANA is added to the reaction mixture.
The optical densities at 405 nm are recorded for 1 hour 30 min to 2 hours.
A positive control was introduced into the trial (dichloroisocoumarin at 2 mM).

[2] = tested on: human skin fibroblasts; test: Incorporation of 3H-leucine into protein fractions of fibroblasts in monolayer culture; assay type: cell-based; conditions: vitamin C reference product
Experimental: After culture of the human skin fibroblasts until the cells become confluent, the culture medium is replaced by a medium containing 2% FCS (Fetal Calf Serum) with:
or vitamin C (reference product).
A batch of untreated control culture is performed in parallel.
After 24 hours of incubation at 37° C., labeled leucine (^3H-leucine) is added to the culture medium and the medium is left to incubate for an additional 48 hours. The following are recovered separately:
on the one hand, the culture medium,
on the other hand, the cell lysate after cellular lysis,
and finally the insoluble fraction (membranes, matrix deposited).
The macromolecules are extracted and then the incorporation of the radioactive precursor of these molecules is measured by liquid scintillation.

[3] = macromolecules extracted from the culture medium
[4] = macromolecules extracted from the intracellular medium

Structure (SMILES) | Inhibition ([1]; elastase activity) | mU elastase/10^6 cell [1] [mU elastase/10^6 cell] | % Control [2, 3] [% Control] | Counts/minute [2, 3] [Counts/minute] | % Control [2, 4] [% Control] | Counts/minute [2, 4] [Counts/minute]
O=c1oc(Cl)c(Cl)c2ccccc12 [DCI, dichloroisocoumarin] | 37 | 0.431 | – | – | – | –
O=C1O[C@H]([C@@H](O)CO)C(O)=C1O [Vitamin C, vitamin C] | – | – | 132 | 34748 ± 2599 | 96 | 35953 ± 4349
